Counter-ions that a name gives are not always drawn.
Experiments:
V79 cells = test: Protection of V79 cells against the toxicity of H2O2 (neutral red technique); format: cell-based; conditions: for IC50: Cricetulus griseus, 1 hour contact with compound, then 30 μM H2O2 for one hour, cell number after 72 hours by neutral red, read-out: Result (concentration inducing 50% protection), IC50
Experimental: The activity of the compounds was evaluated by their ability to protect V79 cells against the toxicity of H2O2, a technique conventionally used to evaluate the effectiveness of antioxidants or iron-chelating agents.
V79 cells were subcultured in DMEM (Dulbecco Modified Essential Medium) medium supplemented with 10% of foetal calf serum, streptomycin, penicillin and glutamine at 37° C. under an atmosphere of 95% air+5% CO2.
The cells were subsequently seeded at a density of 5×10^3/ml in 96-well plates.
After 24 hours, the cells were rinsed and then incubated with the test compounds at different concentrations.
After a contact time of 1 hour, 30 μM of H2O2 were added and incubated at 37° C. for a further one hour.
The cells were subsequently rinsed and then again brought into contact with the supplemented medium described above.
After 72 hours, the number of cells was evaluated in each well by using the neutral red technique.
The protective effect is assessed by the IC50, which measures the concentration which induces 50% protection against cytotoxicity in comparison with the wells treated only with H2O2.

[1] = Solubility limit noted in the V79 protection test; format: physicochemical; conditions: beyond 1 mM

| solubility of compound in the test [1] | SMILES | IC50 (V79 cells) [µM] | protection against H2O2 cytotoxicity (V79 cells; compound at 10 mM, 30 μM H2O2) |
| --- | --- | --- | --- |
| – | COc1cc(CN(CCN(CC(=O)OCOC(C)=O)Cc2cc(OC)c(OC)c(OC)c2)CC(=O)OCOC(C)=O)cc(OC)c1OC [Example 1, bis(acetoxymethyl) [N,N′-bis(3,4,5-trimethoxybenzyl)]-ethylenediamine-N,N′-diacetate] | 10 | – |
| – | COc1cc(CN(CCN(CC(=O)O)Cc2cc(OC)c(OC)c(OC)c2)CC(=O)O)cc(OC)c1OC [Comparative 1, the dihydrochloride of N,N′-bis(3,4,5-trimethoxybenzyl)ethylenediamine-N,N′-diacetic acid] | – | 25% protection only at 10 mM |
| insoluble beyond this point) | COC(=O)CN(CCN(CC(=O)OC)Cc1cc(OC)c(OC)c(OC)c1)Cc1cc(OC)c(OC)c(OC)c1 [Comparative 2] | > 1000 | – |

Reference: patent publication US6482855B2, “Diamine alkylene diacetic or triacetic acid derivatives, preparation method, use in cosmetic and pharmaceutical compositions and compositions containing them” (L'Oreal S.A., priority 1997, dated 2002)
